Assay results: patent publication US8883763B2 (Universite Joseph Fourier, priority 2010, dated 2014)

Assays:
HMEC cells = assay: Proliferation of HMEC cells (GI50); assay type: cell-based; settings: Homo sapiens, 120 h, 50 μM to 1 nM for 5 days
Summary of the method: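 Cells seeded at 1,000/well (10% confluence) and exposed 5 days (120 h) to compound from 1 nM up to 50–100 μM. Live cells counted by Hoechst 33342 staining under fluorescence microscopy; GI50 is concentration halving proliferation versus control, mean of two triplicate experiments.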

HeLa cells = assay: Indirect immunofluorescence: effect on HeLa cells (mitotic arrest, microtubule depolymerization); assay type: cell-based, human; design: key to Effect on Hela at 25 μM / Effect on Hela at 100 μM / Effect on Hela at 50 and 100 μM / Effect on Hela at 50 μM: —: −: no activity on the cells at 25 μM (if there is an effect at high concentrations, this is specified in the table).; *: weak activity (MA and/or slight depolymerization of the MTs and/or slight inhibition of proliferation),; **: average activity (MA and/or moderate depolymerization of the MTs and/or moderate inhibition of proliferation),; ***: strong activity (MA and/or pronounced depolymerization of the MTs and/or pronounced inhibition of proliferation),; ****: very strong activity (MA and/or very pronounced depolymerization of the MTs and/or strong inhibition of proliferation); settings: 24 hours; for Effect on Hela at 25 μM: mitotic index and/or depolymerization of the MTs
Summary of the method: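 HeLa cells exposed 24 h to compound (100 μM to 50 nM; primary series 1–10 μM), DMSO controls. PFA/glutaraldehyde-fixed cells immunostained for α-tubulin, actin (phalloidin) and DNA (Hoechst); fluorescence microscopy scored phenotypes and mitotic index, with mitotic index and/or MT depolymerization evaluated at 25 μM.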

PP1α (PP1CA) = molecular target: T1, PP1α (PP1CA) (Oryctolagus cuniculus, UniProt P62139); assay: Protein phosphatase test (PP1 activity, DiFMUP fluorescent substrate); assay type: biochemical; settings: PP1CA at 80 mU, fluorescent substrate (50 μM), molecules from 50 μM to 50 nM; read-out: PP1 Inhibition IC50
T1 construct: purchased New England Biolabs P0754
T1 sequence (P62139 whole entry): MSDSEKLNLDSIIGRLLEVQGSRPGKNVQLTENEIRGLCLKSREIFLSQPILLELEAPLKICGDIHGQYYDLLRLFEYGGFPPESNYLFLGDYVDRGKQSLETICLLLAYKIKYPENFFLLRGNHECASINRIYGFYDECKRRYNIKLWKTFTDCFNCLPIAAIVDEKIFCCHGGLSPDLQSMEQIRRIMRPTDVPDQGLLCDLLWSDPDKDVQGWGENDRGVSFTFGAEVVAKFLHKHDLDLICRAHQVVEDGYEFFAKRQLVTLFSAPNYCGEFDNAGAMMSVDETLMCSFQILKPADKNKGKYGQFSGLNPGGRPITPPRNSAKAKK
Summary of the method: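 PP1α (30 or 80 mU) in 100 mM Tris-HCl pH 7.5, 4 mM DTT, 0.2 mM EDTA, 0.5 mM MnCl2 was preincubated 15 min with compound (50 μM to 50 nM), then given 60 μM DiFMUP for 20 min at 37 °C. Phosphatase activity was read as fluorescence at 355-460 nm, three times in duplicate.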

bovine brain tubulin = assay: In vitro tubulin polymerization test (turbidimetry at 350 nm); assay type: biochemical; settings: molecules at 50 μM, calculated at t=3000 s, DMSO control = 100%
Summary of the method: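 Bovine brain tubulin was assembled at 37 °C in BRB80 (80 mM K-PIPES pH 6.8, 1 mM MgCl2, 1 mM EGTA) with 1 mM GTP. The 50 μM tests used compounds at 50 μM, run in triplicate. Turbidity at 350 nm was read at t=3000 s and expressed relative to control taken as 100%.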

Row | SMILES | GI50 (HMEC cells) [µM] | melting point [°C] | Effect on Hela at 25 μM (HeLa cells) | IC50 (PP1α (PP1CA)) [µM] | Tubulin polymerization inhibition (bovine brain tubulin) | Effect on Hela at 100 μM (HeLa cells; 100 μM) | Effect on Hela at 50 and 100 μM (HeLa cells; 50 and 100 μM)
1 | COc1ccc(-c2[nH]c(=O)c3cc(OC)ccc3c2N2CCOCC2)cc1 [Compound 49, 7-Methoxy-3-(4-methoxyphenyl)-4-morpholinoisoquinolin-1(2H)-one] | 0.1 to 1 | 139 | ** | > 50 | + ((+) signifies that the molecule induces tubulin assembly inhibition in vitro comprised between 6 and 25% of the DMSO control.) |  | 
2 | COc1ccc2cc(-c3ccc(O)cc3)[nH]c(=O)c2c1 [Compound 45, 3-(4-Hydroxyphenyl)-7-methoxyisoquinolin-1(2H)-one] | 0.1 to 1 | 255 | **** | > 50 | ++ ((++) signifies that the molecule induces tubulin assembly inhibition in vitro comprised between 26 and 50% of the DMSO control.) |  | 
3 | C#Cc1ccc(-c2[nH]c(=O)c3cc(OC)ccc3c2[N+](=O)[O-])cc1 [Compound 36, 3-(4-Ethynylphenyl)-7-methoxy-4-nitroisoquinolin-1(2H)-one] | ≤ 0.1 | 246 to 248 | **** | 10 to 24 | +++ ((+++) signifies that the molecule induces tubulin assembly inhibition in vitro of more than 50% with respect to the DMSO control.) |  | 
4 | COc1ccc(-c2[nH]c(=O)c3cc(OC)ccc3c2-n2cccc2)cc1 [Compound 39, 4-(Pyrrol-1-yl)-7-methoxy-3-(4-methoxyphenyl)isoquinoline-1(2H)-one] | 0.1 to 1 | 238 | — | 10 to 24 | + ((+) signifies that the molecule induces tubulin assembly inhibition in vitro comprised between 6 and 25% of the DMSO control.) |  | 
5 | COc1ccc(-c2cc3ccc(OC)cc3c(S(=O)(=O)O)n2)cc1 [Compound 13, 7-methoxy-3-(4-methoxyphenyl)isoquinoline-1-sulphonic acid] | > 50 | 226 to 228 | — | > 50 | ++ ((++) signifies that the molecule induces tubulin assembly inhibition in vitro comprised between 26 and 50% of the DMSO control.) | * | 
6 | COc1ccc(-c2[nH]c(=O)c3cc(OC)ccc3c2N2CCCCC2)cc1 [Compound 40, 4-(Piperidin-1-yl)-7-methoxy-3-(4-methoxyphenyl)isoquinoline-1(2H)-one] | 0.1 to 1 | 206 | — | > 50 | +++ ((+++) signifies that the molecule induces tubulin assembly inhibition in vitro of more than 50% with respect to the DMSO control.) |  | 
7 | COc1ccc2cc(-c3ccc(C#C[Si](C)(C)C)cc3)[nH]c(=O)c2c1 [Compound 33, 7-Methoxy-3-(4-((trimethylsilyl)ethynyl)phenyl)isoquinolin-1(2H)-one] | 25 to 50 | 133 to 135 | — | > 50 | — ((−) signifies that the molecule induces little or no tubulin assembly inhibition in vitro: 0+ or − −5% of the DMSO control.) |  | 
8 | COc1ccc2c([N+](=O)[O-])c(-c3ccc(Br)cc3)[nH]c(=O)c2c1 [Compound 34, 3-(4-Bromophenyl)-7-methoxy-4-nitroisoquinolin-1(2H)-one] | ≤ 0.1 | 222 to 224 | *** | 25 to 50 | +++ ((+++) signifies that the molecule induces tubulin assembly inhibition in vitro of more than 50% with respect to the DMSO control.) |  | 
9 | COc1ccc(-c2nc(NCc3ccccc3)c3cc(OC)ccc3c2[N+](=O)[O-])cc1 [Compound 22, N-Benzyl-N-[7-methoxy-3-(4-methoxyphenyl)-4-nitroisoquinoline-1-yl]-amine] | > 50 | 199 to 201 | — | ≤ 9 | + ((+) signifies that the molecule induces tubulin assembly inhibition in vitro comprised between 6 and 25% of the DMSO control.) |  | 
10 | COc1ccc(-c2[nH]c(=S)c3cc(OC)ccc3c2[N+](=O)[O-])cc1 [Compound 18, 7-Methoxy-3-(4-methoxyphenyl)-4-nitroisoquinoline-1(2H)-thione] | 1 to 25 | 226 to 228 | **** | 10 to 24 | +++ ((+++) signifies that the molecule induces tubulin assembly inhibition in vitro of more than 50% with respect to the DMSO control.) |  | 
11 | COc1ccc(-c2nc(OCC#N)c3cc(OC)ccc3c2[N+](=O)[O-])cc1 [Compound 31, 2-(7-Methoxy-3-(4-methoxyphenyl)-4-nitroisoquinolin-1-yloxy)ethanenitrile] | > 50 | 192 to 194 | — | > 50 | ++ ((++) signifies that the molecule induces tubulin assembly inhibition in vitro comprised between 26 and 50% of the DMSO control.) |  | 
12 | COc1ccc2c([N+](=O)[O-])c(-c3ccc(C#C[Si](C)(C)C)cc3)[nH]c(=O)c2c1 [Compound 35, 7-Methoxy-4-nitro-3-(4-((trimethylsilyl)ethynyl)phenyl)isoquinolin-1(2H)-one] | ≤ 0.1 | 178 to 180 | *** | 10 to 24 | — ((−) signifies that the molecule induces little or no tubulin assembly inhibition in vitro: 0+ or − −5% of the DMSO control.) |  | 
13 | COc1ccc(-c2[nH]c(=O)c3cc(OC)ccc3c2C=O)cc1 [Compound 25, 7-Methoxy-3-(4-methoxyphenyl)isoquinoline-1(2H)-one-4-carbaldehyde] | 0.1 to 1 | 232 | **** | ≥ 50 | +++ ((+++) signifies that the molecule induces tubulin assembly inhibition in vitro of more than 50% with respect to the DMSO control.) |  | 
14 | COc1ccc2cc(-c3ccc(OCc4ccccc4)cc3)[nH]c(=O)c2c1 [Compound 44, 3-(4-(Benzyloxy)phenyl)-7-methoxyisoquinolin-1(2H)-one] | 25 to 50 | > 260 | — | 10 to 24 | — ((−) signifies that the molecule induces little or no tubulin assembly inhibition in vitro: 0+ or − −5% of the DMSO control.) |  | 
15 | C#Cc1c(-c2ccc(OC)cc2)nc(OC)c2cc(OC)ccc12 [Compound 38, 4-Ethynyl-1,7-dimethoxy-3-(4-methoxyphenyl)isoquinoline] | > 50 | 209 to 210 | — | > 50 | + ((+) signifies that the molecule induces tubulin assembly inhibition in vitro comprised between 6 and 25% of the DMSO control.) |  | 
16 | COc1ccc(-c2nc(Cl)c3cc(OC)ccc3c2[N+](=O)[O-])cc1 [Compound 17, 1-Chloro-7-methoxy-3-(4-methoxyphenyl)-4-nitroisoquinoline] | 25 to 50 | 196 to 198 | — | > 50 | ++ ((++) signifies that the molecule induces tubulin assembly inhibition in vitro comprised between 26 and 50% of the DMSO control.) |  | 
17 | COc1ccc(-c2nc(Sc3ccccc3)c3cc(OC)ccc3c2[N+](=O)[O-])cc1 [Compound 20, 7-Methoxy-3-(4-methoxyphenyl)-4-nitro-1-(phenylethio)isoquinoline] | > 50 | 169 to 171 | — | 25 to 50 | ++ ((++) signifies that the molecule induces tubulin assembly inhibition in vitro comprised between 26 and 50% of the DMSO control.) |  | *
